PMC7286885, “An iron (II) dependent oxygenase performs the last missing step of plant lysine catabolism” (Nature Communications, 2020)

Key:
[1] = target: T1, AT1G07040 (Arabidopsis thaliana, UniProt Q9LMJ7); assay: in vitro assay, product by high resolution LC-MS; type: biochemical; settings: conversion to 2-hydroxyglutarate; N-terminal localization peptide removed
T1 construct: amplified from Arabidopsis cDNA, expressed in E. coli BL21 (DE3), Ni-NTA purified
T1 sequence (Q9LMJ7 51-371): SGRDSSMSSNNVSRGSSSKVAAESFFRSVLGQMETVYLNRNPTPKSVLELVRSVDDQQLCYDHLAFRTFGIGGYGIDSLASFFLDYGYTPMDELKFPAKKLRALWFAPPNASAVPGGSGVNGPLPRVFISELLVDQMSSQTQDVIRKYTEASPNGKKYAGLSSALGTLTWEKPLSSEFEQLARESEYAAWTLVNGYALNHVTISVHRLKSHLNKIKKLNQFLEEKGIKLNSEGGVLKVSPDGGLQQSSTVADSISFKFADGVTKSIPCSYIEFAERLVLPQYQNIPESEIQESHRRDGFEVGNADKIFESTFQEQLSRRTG

[2] = target: T2, YdcJ (Escherichia coli, UniProt P76097); assay: in vitro assay, product by high resolution LC-MS; type: biochemical; settings: conversion to 2-hydroxyglutarate
T2 construct: recombinant in E. coli BL21 (DE3), Ni-NTA purified
T2 sequence (P76097 1-447): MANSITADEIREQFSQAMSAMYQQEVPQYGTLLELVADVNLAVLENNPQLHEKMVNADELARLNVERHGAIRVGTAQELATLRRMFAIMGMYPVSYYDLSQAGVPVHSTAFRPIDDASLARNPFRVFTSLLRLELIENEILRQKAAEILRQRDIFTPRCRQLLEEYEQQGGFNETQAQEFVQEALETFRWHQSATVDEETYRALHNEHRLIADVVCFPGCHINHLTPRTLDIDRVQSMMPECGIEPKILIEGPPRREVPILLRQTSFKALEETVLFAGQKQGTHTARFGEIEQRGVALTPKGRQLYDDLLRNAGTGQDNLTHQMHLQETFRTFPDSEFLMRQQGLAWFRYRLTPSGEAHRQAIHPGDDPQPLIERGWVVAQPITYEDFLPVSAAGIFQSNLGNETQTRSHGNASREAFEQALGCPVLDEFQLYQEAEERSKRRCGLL

[3] = target: T3, FLO7 (Oryza sativa, UniProt Q337M4); assay: X-ray crystal structure at […] Å, soaked crystals; type: binding; settings: active-site Ni(II); Arg64 binds the substrate
T3 construct: E. coli codon-optimized gene, expressed in E. coli BL21 (DE3), Ni-NTA purified
T3 sequence (Q337M4 48-364 limits assumed): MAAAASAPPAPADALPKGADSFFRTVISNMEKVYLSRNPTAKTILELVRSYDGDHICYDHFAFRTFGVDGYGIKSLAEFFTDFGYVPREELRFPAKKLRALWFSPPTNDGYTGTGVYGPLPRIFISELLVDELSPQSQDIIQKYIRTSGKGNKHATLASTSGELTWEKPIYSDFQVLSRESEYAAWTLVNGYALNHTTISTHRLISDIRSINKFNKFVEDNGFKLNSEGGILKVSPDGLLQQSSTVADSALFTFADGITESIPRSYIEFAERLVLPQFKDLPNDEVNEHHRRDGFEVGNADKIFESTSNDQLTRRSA

[4] = target: T4, HglS (Pseudomonas putida, UniProt Q88CC1); assay: X-ray crystal structure, soaked crystals; type: binding; settings: active-site Ni(II) (noncatalytic); 2OA carboxylate and alpha-keto group coordinate the metal, Arg74 salt bridge
T4 construct: recombinant in E. coli BL21 (DE3), Ni-NTA purified; crystals contain mainly active-site Ni(II); activity with Fe(II)
T4 sequence (Q88CC1 1-464): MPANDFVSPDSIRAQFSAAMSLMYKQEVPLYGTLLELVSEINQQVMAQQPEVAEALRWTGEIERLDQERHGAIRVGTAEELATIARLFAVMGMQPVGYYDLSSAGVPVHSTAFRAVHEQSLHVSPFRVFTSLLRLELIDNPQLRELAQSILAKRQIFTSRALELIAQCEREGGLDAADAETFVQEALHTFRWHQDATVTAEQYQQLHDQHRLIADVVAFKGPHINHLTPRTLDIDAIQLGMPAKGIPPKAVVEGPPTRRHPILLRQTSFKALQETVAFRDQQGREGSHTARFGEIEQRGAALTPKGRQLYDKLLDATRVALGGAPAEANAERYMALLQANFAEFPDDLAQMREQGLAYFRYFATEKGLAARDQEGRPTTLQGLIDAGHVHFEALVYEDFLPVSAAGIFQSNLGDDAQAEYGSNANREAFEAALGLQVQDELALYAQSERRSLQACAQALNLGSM

[5] = substrate: O=C(O)CCCC(=O)C(=O)O; assay: steady-state kinetics of purified enzyme; type: biochemical, Oryza sativa; settings: Fe(II)- and O2-dependent; N-terminal localization peptide removed
[6] = substrate: O=C(O)CCCC(=O)C(=O)O; assay: initial rates of O2 consumption, Clark-type electrode; type: biochemical, Pseudomonas putida; settings: 10 µM FeSO4, 100 mM Tris pH 7.0, room temperature, 240 µM O2, 10-200 µM 2OA, 100 nM enzyme
From the text: initial rates of O2 consumption, Clark-type electrode on HglS | kinetic parameters determined by monitoring oxygen consumption were similar to those we previously reported

O=C(O)CCCC(=O)C(=O)O [2OA, 2-oxoadipate]
in vitro assay, product by high resolution LC-MS [1]: plant homologs AT1G07040 and FLO7 catalyzed the conversion of 2OA | in vitro assay, product by high resolution LC-MS [2]: the E. coli homolog YdcJ and the plant homologs AT1G07040 and FLO7 catalyzed the conversion | X-ray crystal structure at 1.85 Å, soaked crystals [3]: soaked with 2OA, producing diffraction data used to solve the substrate-bound crystal structure | X-ray crystal structure, soaked crystals [4]: soaked HglS crystals with 2OA and solved the structure of the resulting complex

B1: FLO7 (Oryza sativa Japonica Group) (protein)
chain: T3 sequence (Q337M4 48-364 limits assumed)
notes: E. coli codon-optimized gene, expressed in E. coli BL21 (DE3), Ni-NTA purified
Km [5]: 550 µM

B2: HglS (Pseudomonas putida KT2440) (protein)
chain: T4 sequence (Q88CC1 1-464)
notes: recombinant in E. coli BL21 (DE3), Ni-NTA purified; crystals contain mainly active-site Ni(II); activity with Fe(II)
Km [6]: 10 µM
